Test results: patent US10208023B2, “Heterocyclic inhibitors of the sodium channel” (priority 2013, dated 2019)
Like-named read-outs stand apart in the source and are kept apart here.

Experiments:
formalin test in rats = test: Formalin test in rats (automated flinch detection); assay type: in vivo; conditions: rat; for Phase 1 paw flinches: Phase I (0-9 mins); for Total Phase 2 paw flinches: Phase II (10-60 mins); for Phase 2a paw flinches: Phase IIA (10-40 mins); for Phase 2b paw flinches: Phase IIB (41-60 mins)
Description: The formalin test in rats was performed as previously described (McNamara, 2007. Proc. Natl. Acad. Sci., vol 104, page 13525) using an automated flinch-detecting system (T. Yaksh, University of California at San Diego, La Jolla, Calif.). On the day of testing, a small metal band (0.5 g) was loosely placed around the right hind paw of a male Sprague-Dawley rat (average weight, ˜250 g). The rats were allowed to acclimate to a Plexiglas chamber for at least 30 min before testing. Formalin was then injected (50 μl of 2.5% formalin, diluted in saline) into the dorsal surface of the right hind paw of the rat, and the animal was put into a chamber of the automated formalin apparatus where movement of the formalin-injected paw was recorded. The number of paw flinches per minute was tallied for the next 60 minutes. The time interval phases were defined as follows: Phase I (0-9 mins), Phase II (10-60 mins), Phase IIA (10-40 mins), and Phase IIB (41-60 mins). The following compounds were administered 1 hour prior to formalin administration. Compound 52 from Table 1 was administered by oral gavage in 4% DMSO, 10% Solutol, 86% H2O. Gabapentin was administered subcutaneously in 0.9% NaCl (aq). 4.

hNav1.7 = hNav1.7 (Homo sapiens (Human), UniProt Q15858); test: Nav1.7 potency, Patchliner automated patch clamp; assay type: cell-based; conditions: automated patchclamp
Description: The generation of a HEK 293F cell line stably expressing human Nav1.7/Navβ1 was achieved by co-transfecting human SCN9A and human SCN1B cDNAs, subcloned into plasmid vectors, utilizing standard transfection techniques. Clones were selected using appropriate selection agents (0.3 mg/mL Zeocin and 0.8 mg/mL Geneticin) and maintained in Dulbecco's Modified Eagle medium, 10% fetal bovine serum, 1% non-essential amino acids to ˜80% confluence at 37° C. in a humidified incubator with 95% atmosphere and 5% CO2.
In some cases, the potency of compounds was measured using either the Patchliner automated patch clamp platform (Nanion) or manual patch clamp techniques. Both approaches allowed the compounds to be characterized based upon the ability of a compound to modulate use- and/or state-dependence. The potency data is tabulated in Table 3 and is represented by eight data fields. The first four fields represent potency data measured with the Patchliner automated platform under varying use- and state-dependent electrophysiology protocols similar to the Patch express protocols detailed above. The first data column describes the potency of compounds when the Nav1.7 channel is being repetitively activated at a 7 Hz hyperpolarization frequency (Table 3: hNav1.7: IC50 of inward current block at 7 Hz, Automated patchclamp). The second data column represents the potency at which 50% of the initial hyperpolarization pulse is inhibited by the compounds (Table 3: hNav1.7: IC50 of P1 block, Automated patchclamp). The third data column details the potency of compounds in their ability to block 50% of Nav1.7 channels when these channels are induced into the slow inactivated state (Table 3: hNav1.7: IC50 of slow inactivation block, Automated patchclamp). […] The next three data fields describe the data generated from manual patchclamp electrophysiology measurements using similar methods to those employed for automated patchclamp studies. […] The last column characterizes the state-dependence of compound inhibition. […]

[1] = 3 mg/kg oral gavage 1 hour prior to formalin
[2] = 10 mg/kg oral gavage 1 hour prior to formalin
[3] = 30 mg/kg oral gavage 1 hour prior to formalin
[4] = 100 mg/kg SC 1 hour prior to formalin

Sequence of hNav1.7 (Q15858 whole entry): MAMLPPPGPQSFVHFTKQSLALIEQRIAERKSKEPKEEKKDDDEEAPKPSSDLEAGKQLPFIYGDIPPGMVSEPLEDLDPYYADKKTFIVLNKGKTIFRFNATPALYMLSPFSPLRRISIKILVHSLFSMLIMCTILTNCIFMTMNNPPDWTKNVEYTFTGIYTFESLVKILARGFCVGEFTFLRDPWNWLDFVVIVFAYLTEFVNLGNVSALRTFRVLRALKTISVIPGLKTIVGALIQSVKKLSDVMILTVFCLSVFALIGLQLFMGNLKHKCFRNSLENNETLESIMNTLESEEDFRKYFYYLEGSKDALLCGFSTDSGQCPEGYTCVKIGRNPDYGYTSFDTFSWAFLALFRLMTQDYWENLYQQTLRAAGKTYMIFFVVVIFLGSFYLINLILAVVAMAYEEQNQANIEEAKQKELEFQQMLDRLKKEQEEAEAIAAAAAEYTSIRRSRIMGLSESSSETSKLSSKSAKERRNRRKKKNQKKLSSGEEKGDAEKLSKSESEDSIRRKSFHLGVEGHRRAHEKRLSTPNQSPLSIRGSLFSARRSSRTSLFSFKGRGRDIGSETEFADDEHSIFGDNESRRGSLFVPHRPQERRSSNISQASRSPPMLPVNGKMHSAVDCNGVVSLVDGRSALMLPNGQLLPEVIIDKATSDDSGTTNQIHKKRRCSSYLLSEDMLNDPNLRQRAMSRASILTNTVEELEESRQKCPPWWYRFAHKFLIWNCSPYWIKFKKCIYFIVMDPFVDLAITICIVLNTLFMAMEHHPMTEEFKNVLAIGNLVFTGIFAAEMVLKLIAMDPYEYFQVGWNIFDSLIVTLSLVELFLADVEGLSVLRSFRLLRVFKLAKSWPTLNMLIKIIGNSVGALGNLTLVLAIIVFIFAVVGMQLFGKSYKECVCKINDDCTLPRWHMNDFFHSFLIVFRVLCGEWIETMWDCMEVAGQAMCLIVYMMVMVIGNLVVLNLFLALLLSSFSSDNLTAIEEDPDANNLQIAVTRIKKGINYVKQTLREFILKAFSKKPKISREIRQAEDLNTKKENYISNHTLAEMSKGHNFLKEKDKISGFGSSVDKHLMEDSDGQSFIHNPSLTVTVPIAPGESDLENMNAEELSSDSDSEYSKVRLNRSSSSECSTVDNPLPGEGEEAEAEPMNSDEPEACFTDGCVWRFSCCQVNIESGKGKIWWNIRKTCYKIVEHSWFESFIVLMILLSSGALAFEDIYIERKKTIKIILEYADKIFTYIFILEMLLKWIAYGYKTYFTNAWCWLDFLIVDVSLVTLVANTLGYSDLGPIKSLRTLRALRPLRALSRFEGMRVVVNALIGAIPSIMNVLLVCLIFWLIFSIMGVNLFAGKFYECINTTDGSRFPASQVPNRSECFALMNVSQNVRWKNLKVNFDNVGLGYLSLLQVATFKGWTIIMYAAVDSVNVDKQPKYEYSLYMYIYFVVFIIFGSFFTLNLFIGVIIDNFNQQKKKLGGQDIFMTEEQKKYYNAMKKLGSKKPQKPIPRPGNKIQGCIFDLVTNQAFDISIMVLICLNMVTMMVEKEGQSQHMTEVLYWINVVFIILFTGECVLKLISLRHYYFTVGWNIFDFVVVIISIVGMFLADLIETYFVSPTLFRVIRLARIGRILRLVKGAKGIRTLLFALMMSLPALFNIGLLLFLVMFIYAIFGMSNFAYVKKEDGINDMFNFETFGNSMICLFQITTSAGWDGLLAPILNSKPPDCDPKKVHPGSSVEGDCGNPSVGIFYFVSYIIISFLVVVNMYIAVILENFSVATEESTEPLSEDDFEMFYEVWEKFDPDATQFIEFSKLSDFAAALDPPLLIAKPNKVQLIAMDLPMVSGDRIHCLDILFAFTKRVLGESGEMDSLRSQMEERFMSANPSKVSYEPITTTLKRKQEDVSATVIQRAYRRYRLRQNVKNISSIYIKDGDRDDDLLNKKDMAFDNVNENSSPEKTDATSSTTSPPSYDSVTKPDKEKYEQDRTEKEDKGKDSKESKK
Sequence of hNav1.7 (Q07699 19-218 partner): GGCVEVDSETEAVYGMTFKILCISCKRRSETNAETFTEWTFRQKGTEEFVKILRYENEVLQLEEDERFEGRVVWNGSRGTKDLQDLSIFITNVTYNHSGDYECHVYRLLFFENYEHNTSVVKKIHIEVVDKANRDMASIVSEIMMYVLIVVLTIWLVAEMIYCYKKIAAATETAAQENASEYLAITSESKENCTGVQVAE

## NC1(c2nc3cc(C(F)(F)F)cc(C(F)(F)F)c3[nH]2)Cc2ccccc2C1 [Compound 52, 2-(4,6-bis(trifluoromethyl)-1H-benzo[d]imidazol-2-yl)-2,3-dihydro-1H-inden-2-amine]
Formalin test in rats; [1]
  Phase 1 paw flinches: 345 ± 75
  Total Phase 2 paw flinches: 1365 ± 174
  Phase 2a paw flinches: 988 ± 139
  Phase 2b paw flinches: 377 ± 79
Formalin test in rats; [2]
  Phase 1 paw flinches: 315 ± 58
  Total Phase 2 paw flinches: 962 ± 189
  Phase 2a paw flinches: 758 ± 199
  Phase 2b paw flinches: 204 ± 66
Formalin test in rats; [3]
  Phase 1 paw flinches: 333 ± 75
  Total Phase 2 paw flinches: 853 ± 259
  Phase 2a paw flinches: 706 ± 261
  Phase 2b paw flinches: 147 ± 101

## NCC1(CC(=O)O)CCCCC1 [Gabapentin, reference compound]
Formalin test in rats; [4]
  Phase 1 paw flinches: 320 ± 58
  Total Phase 2 paw flinches: 562 ± 213
  Phase 2a paw flinches: 486 ± 202
  Phase 2b paw flinches: 77 ± 47

## N[C@H](Cc1cccc(C(F)(F)F)c1)C(=O)NCc1nc2c(C(F)(F)F)cc(C(F)(F)F)cc2[nH]1 [Compound 75, (R)-2-amino-N-((4,6-bis(trifluoromethyl)-1H-benzo[d]imidazol-2-yl)methyl)-3-(3-(trifluoromethyl)phenyl) propanamide]
hNav1.7; 7 Hz, read-out: Nav1.7 IC50 INWARD CURRENT BLOCK (nM) (7 Hz, Automated Patchclamp)
  IC50: 15000 nM
hNav1.7; initial pulse (P1), read-out: Nav1.7 IC50 P1 BLOCK (nM) (Automated Patchclamp)
  IC50: 15000 nM
hNav1.7; slow inactivated state, read-out: Nav1.7 IC50 SLOW INACTIVATION BLOCK (nM) (Automated Patchclamp)
  IC50: 15000 nM
